Measured values reported in US9782522B2, “Compositions and methods for treating and preventing neointimal stenosis” (Yale University, priority 2011, dated 2017).

How the values were obtained:
HUAEC = assay: qRT-PCR mRNA expression of TGFβ signaling and Endo-MT markers in endothelial cells; type: cell-based, human; settings: FRS2 knockdown EC; 10 μM
Source text: Human 293T T17 cells (ATCC CRL-11268) were maintained in Dulbecco's modified Eagle's medium (Gibco) with 10% fetal bovine serum (Invitrogen) and penicillinstreptomycin (Gibco). Primary human mammary epithelial cells (HuMEC, Invitrogen), were maintained in HuMEC basal serum free medium with HuMEC supplement (Invitrogen 12754-016) and bovine pituitary extract (Invitrogen 13028-014). Human foreskin cells (ATCC CRL-1079Sk) were maintained in Minimum Essential Medium (ATCC) with 10% fetal bovine serum (Hyclone), β-mercaptoethanol (Sigma), and penicillin-streptomycin (Gibco). Primary human atrial cells (passage 3-5; gift from Y. Qyang, Yale University School of Medicine) were maintained in Dulbecco's modified Eagle's medium (Gibco) with 10% fetal bovine serum (Invitrogen), L-glutamine (Gibco), Sodium pyruvate (Gibco), Non-essential amino acid (Gibco), and penicillin-streptomycin (Gibco). HUAEC (human umbilical artery endothelial cells, passage 5-10, Lonza) were cultured in EBM-2 supplemented with EGM-2-MV bullet kit (Lonza). HUVEC (human umbilical vein endothelial cells, passage 3-7, Yale Vascular Biology and Therapeutics) were cultured in M199 with ECGS, supplemented with 20% FBS (Sigma), L-glutamine (Gibco), and penicillin-streptomycin (Gibco). Culture vessels were coated with 0.1% gelatin (Sigma) for 30 min at 37° C. immediately prior to cell seeding. Primary mouse endothelial cells were isolated from the heart using rat anti-mouse CD31 antibody and Dynabeads (Invitrogen) as previously described (Partovian C, et al. Mol Cell. 32(1):140 (2008)).
RNA was isolated using RNeasy® plus Mini Kit (Qiagen) and converted to cDNA using iScript™ cDNA synthesis kit (Bio-Rad). Quantitative real-time PCR (qRT-PCR) was performed using Bio-Rad […] (Bio-Rad) by mixing equal amount of eDNAs, iQ™ SYBR® Green Supermix (Bio-Rad) and gene specific primers. All reactions were done in a 25 μl reaction volume in duplicate. Data were normalized to endogenous β-actin. Values are expressed as fold change in comparison to control. Mouse TGFβ gene expression was quantified via qRT-PCR with TaqMan® Gene Expression Assays (Mm00441726_m1; Applied Biosystems) and HPRT (Mm00441258_1; Applied Biosystems) as endogenous control followed the manufacturer's recommendation. Quantitative PCR analysis of 84 TGFβ and epithelial to mesenchymal transition (EMT) related genes were performed using Human TGFβ BMP signaling pathway (PAHS-035D, QIAGEN) and Human Epithelial to Mesenchymal Transition (PAHS-090D, QIAGEN) RT^2 Profiler™ PCR Arrays following the manufacturer's protocol. RT^2 Profiler™ PCR arrays were run on a Bio-Rad CFX96 machine (Bio-Rad). Duplicate arrays were run per condition for control and FRS2 knockdown human umbilical arterial endothelial cells (HUAEC). Data analysis was performed using the manufacturer's integrated web-based software package for the PCR Array System using cycle threshold (Ct)-based fold-change calculations.
Recombinant human FGF2 (R&D) and TGFβ1 (Peprotech) were reconstituted in 0.1% BSA/PBS. U0126 (Sigma), a MEK inhibitor, was reconstituted in DMSO and used at a final concentration of 10 μM. SB431542 (Sigma), a TGFBR1 kinase inhibitor, was reconstituted in DMSO and used at a final concentration of 10 μM in cell culture. Actinomycin D (Sigma), a DNA transcription suppressor, was reconstituted in acetone and used at a final concentration of 10 μg/ml in cell culture. […]

3T3 human fibroblasts = assay: Bioactivity of encapsulated SB-431542 (phosphorylated SMAD-2 after TGF-β1); type: cell-based
Procedure: SB-431542 was released into 1 ml PBS from 10 mg avidin-coated PLGA microparticles and one untrimmed SB-431542-eluting PGA-P(CL/LA) scaffold in 2 ml microcentrifuge tubes at 37° C. At 48 hours, samples were centrifuged at 13200 RPM for 10 minutes, supernatants were collected and analyzed by spectrophotometry at 320 nm. SB-431542 concentrations were adjusted to 10 μM by dilution with PBS. 3T3 human fibroblasts were plated at 500,000/well and stimulated at confluence with 700 ul 10 μM SB-431542 in PBS eluted from particles or scaffolds, a stock solution of 10 or 1 μM SB-431542 containing <1% DMSO, or PBS. After 30 minutes at 37° C., cells were washed and stimulated with 200 ul 2 ng/ml recombinant human TGF-β1 (BD Biosciences) for 1 hour at 37 C. Cells were lysed and protein samples were separated by gel electrophoresis with a 12% polyacrylamide gel and probed with primary antibody to phosphorylated SMAD-2 (ser426/ser428, Cell Signaling Technology) and secondary goat anti-rabbit IgG (Cell Signaling Technology). The gel was stripped and reprobed with anti-SMAD2/3 as a loading control.

With `NC(=O)c1ccc(-c2nc(-c3ccc4c(c3)OCO4)c(-c3ccccn3)[nH]2)cc1` [SB431542, 4-[4-(1,3-Benzodioxol-5-yl)-5-(2-pyridinyl)-1H-imidazol-2-yl]-benzamide] the SM-calponin expression (HUAEC) was “significantly decreased”, the fibronectin expression (HUAEC) was “significantly decreased” and the vimentin expression (HUAEC) was “significantly decreased”. For the same compound, the “Biologic activity of the released drug” value (3T3 human fibroblasts; inhibitor added to the solvent used to make the grafts) was “continued biologic activity” and the “Biologic activity of the released drug” value (3T3 human fibroblasts; microparticle system) was “maintains its biologic activity”.
